Laboratory results published in patent US20090264384A1, “INDOLE, BENZIMIDAZOLE, AND BENZOLACTAM BORONIC ACID COMPOUNDS, ANALOGS THEREOF AND METHODS OF USE THEREOF” (Nuada, Inc., priority 2004, published 2009).

What was measured:
[1] = system: colitis provoked by trinitrobenzene sulphonic acid (TNBS); experiment: Rat model of colitis provoked by TNBS, 3 days, treatment from Day −1 (CCI-7155, CCI-7156); assay type: in vivo; settings: vs CMC group
Procedure: The effects of CCI-7155 and CCI-7156, were evaluated in the TNBS model at one and two oral dose levels, administered twice a day by gavage, treatment commencing 1 day prior to challenge. A low intracolonic concentration of TNBS (10 mg) was used, known to produce reproducible yet not unduly severe mucosal injury in the colon, determined 3 days after instillation. Colonic macroscopic injury has been assessed, as has colonic weight as a reflection of colonic oedema and wet/dry weight to determine colonic water content, along with determination of myeloperoxidase (MPO) activity (Bradley et al, 1982) as an index of white cell infiltration for the evaluation of tissue injury. In addition to the test compounds [CCI-7155 and CCI-7156], the actions of sulfasalazine, a well-established and currently used treatment has also been evaluated in this model.
TNBS Challenge—Male Wistar rats (230-280 g) were randomised into groups of 8-10 before commencement of the study. Food was withdrawn 18 h (overnight) before TNBS administration, but the rats were allowed free access to drinking water. On the morning of the day of challenge, Day 0, the rats were transiently anaesthetised with ether and TNBS (10 mg in 0.25 ml of 50% ethanol) was instilled approximately 6-8 cm into the colon using a soft plastic catheter inserted in the rat rectum. The rats were allowed to recover with free access to food and drinking water. At the end of the experiment, 72 h after TNBS administration (i.e. on the morning of Day 3, between 9.00 and 11.00), the distal colon was dissected, and the distal 8 cm photographed and stored appropriately for subsequent analyses.
The following primary parameters were measured in the main study: (a) macroscopic scoring of distal 8 cm of colon; (b) myeloperoxidase levels in segments of distal 8 cm of colon. In addition, the weight of the colonic segment was assessed as an indirect and non-specific marker of oedema, and this was supported by measurement of the wet/dry ratio as an index of water content. The body weight of the animals was also determined and expressed as % change from the day of challenge.
Treatments. All challenged groups were dosed orally twice daily from Day −1. The groups for study were:
The compounds were thus administered orally, twice daily and given on Day −b 1 before TNBS administration, on Day 0, the day of TNBS administration and on Day 1 and 2. Tissues were removed 72 h after TNBS administration (on Day3). Dosing was performed once in the morning (Between 9:00 and 11:00) and once in the late afternoon (between 18:00 and 20:00).
Preparation of Compound. CCI-7155 and CCI-7156 were suspended in 0.5% w/v carboxy methyl cellulose in sterile water, to produce a smooth suspension as instructed, and administered in a volume of 2 ml/kg (˜0.5 ml per rat per dose).
Preparation of Sulfasalazine. the Doses of Sulfasalazine Used in the Present study were derived from previously published work with this agent in the TNBS model (Boughton-Smith et al, 1988; Sykes et al, 1999; Galvez et al, 2000; Bobin-Dubigeon et al, 2001). Sulfasalazine was suspended in carboxy methyl cellulose (0.5% w/v in sterile water; Sigma Chemical Co, compound reference M-0262) and administered p.o. in a volume of 0.5 ml. In previous studies in these laboratories, this concentration of carboxy methyl cellulose (CMC) had no significant effect on the extent of colitis as determined by macroscopic injury and changes in inflammatory markers following TNBS challenge.
Macrocopic Injury. The distal 8 cm portion of the colon (measured from the rectum) was removed, opened longitudinally and gently rinsed with ice-cold phosphate buffer (PBS; pH 7.4), blotted, weighed (Scaltec, Germany) and photographed (Samsung, Digimax 340, digital camera). The tissue was then cut into longitudinal strips, each strip being thus 8 cm long and included the whole of the zone of injury. […]

[2] = biological target: T1, A1(h) (Homo sapiens, UniProt P30542); experiment: A1(h) binding assay; settings: 1.0E−05 M; read-out: % Inhibition of Control Specific Binding
T1 construct: expressed in transfected cells; host or cells: CHO cells

[3] = biological target: T2, β1(h) (Homo sapiens, UniProt P08588); experiment: β1(h) binding assay; settings: read-out: % Inhibition of Control Specific Binding
T2 construct: expressed in transfected cells; host or cells: HEK-293 cells

[4] = biological target: T3, β2(h) (Homo sapiens, UniProt P07550); experiment: β2(h) binding assay; settings: read-out: % Inhibition of Control Specific Binding
T3 construct: expressed in transfected cells; host or cells: Sf9 cells

[5] = system: BZD (central); experiment: BZD (central) binding assay; set-up: species or system rat; settings: 1.0E−05 M
[6] = biological target: T4, CB1(h) (Homo sapiens, UniProt P21554); experiment: CB1(h) binding assay; settings: 1.0E−05 M; read-out: % Inhibition of Control Specific Binding
T4 construct: expressed in transfected cells; host or cells: HEK-293 cells

[7] = biological target: T5, D2S(h) (Homo sapiens, UniProt P14416); experiment: biochemical; assay type: binding; settings: 1.0E−05 M; read-out: % Inhibition of Control Specific Binding
T5 construct: expressed in transfected cells; host or cells: CHO cells

[8] = biological target: D4.4(h) (Homo sapiens, UniProt P21917); experiment: biochemical; settings: 1.0E−05 M; read-out: % Inhibition of Control Specific Binding
[9] = system: AMPA; experiment: AMPA binding assay; set-up: species or system rat; settings: 1.0E−05 M
[10] = system: Kainate; experiment: Kainate binding assay; set-up: species or system rat; settings: 1.0E−05 M
[11] = system: NMDA; experiment: NMDA binding assay; set-up: species or system rat; settings: 1.0E−05 M
[12] = biological target: T6, H2(h) (Homo sapiens, UniProt P25021); experiment: H2(h) binding assay; settings: read-out: % Inhibition of Control Specific Binding
T6 construct: expressed in transfected cells; host or cells: CHO cells

[13] = biological target: T7, NK2(h) (Homo sapiens, UniProt P21452); experiment: NK2(h) binding assay; settings: 1.0E−05 M; read-out: % Inhibition of Control Specific Binding
T7 construct: expressed in transfected cells; host or cells: CHO cells

[14] = biological target: N (neuronal) (α-BGTX-insensitive) (Rattus norvegicus, UniProt P09483+P12390); experiment: N (neuronal) (α-BGTX-insensitive) binding assay; settings: 1.0E−05 M; read-out: % Inhibition of Control Specific Binding
[15] = system: P2X; experiment: P2X binding assay; set-up: species or system rat; settings: 1.0E−05 M
[16] = system: Ca^2+ channel (L, verapamil site) (phenylalkylamines); experiment: Ca^2+ channel (L, verapamil site) binding assay; set-up: species or system rat; settings: 1.0E−05 M
[17] = system: SK^+Ca channel; experiment: SK^+Ca channel binding assay; set-up: species or system rat; settings: 1.0E−05 M
[18] = biological target: T8, NE transporter(h) (Homo sapiens, UniProt P23975); experiment: NE transporter(h) binding assay; settings: read-out: % Inhibition of Control Specific Binding
T8 construct: expressed in transfected cells; host or cells: MDCK cells

[19] = system: Catechol-O-methyl transferase; experiment: Catechol-O-methyl transferase enzyme assay; assay type: biochemical, porcine; settings: 1.0E−05 M
[20] = 50 mg/kg/day p.o. in divided doses, 72 h after TNBS

N (neuronal) (α-BGTX-insensitive), sequence (P09483 31-630): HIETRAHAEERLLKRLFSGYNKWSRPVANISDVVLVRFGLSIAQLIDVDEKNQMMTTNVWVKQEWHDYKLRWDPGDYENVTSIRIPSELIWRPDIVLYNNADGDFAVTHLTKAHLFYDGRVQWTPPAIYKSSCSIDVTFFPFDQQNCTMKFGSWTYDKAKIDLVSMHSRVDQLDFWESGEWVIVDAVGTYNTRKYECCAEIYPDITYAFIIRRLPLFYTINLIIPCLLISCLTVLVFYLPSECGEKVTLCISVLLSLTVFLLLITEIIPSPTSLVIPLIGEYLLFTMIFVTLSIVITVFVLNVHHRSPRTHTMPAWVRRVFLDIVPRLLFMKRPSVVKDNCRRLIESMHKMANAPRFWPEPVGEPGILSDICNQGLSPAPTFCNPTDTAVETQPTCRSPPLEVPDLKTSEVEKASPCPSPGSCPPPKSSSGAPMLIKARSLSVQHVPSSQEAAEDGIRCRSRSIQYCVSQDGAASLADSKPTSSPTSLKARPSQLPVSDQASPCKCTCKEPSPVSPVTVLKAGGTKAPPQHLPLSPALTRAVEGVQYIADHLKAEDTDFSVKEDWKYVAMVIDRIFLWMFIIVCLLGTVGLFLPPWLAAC
N (neuronal) (α-BGTX-insensitive), sequence (P12390 25-500): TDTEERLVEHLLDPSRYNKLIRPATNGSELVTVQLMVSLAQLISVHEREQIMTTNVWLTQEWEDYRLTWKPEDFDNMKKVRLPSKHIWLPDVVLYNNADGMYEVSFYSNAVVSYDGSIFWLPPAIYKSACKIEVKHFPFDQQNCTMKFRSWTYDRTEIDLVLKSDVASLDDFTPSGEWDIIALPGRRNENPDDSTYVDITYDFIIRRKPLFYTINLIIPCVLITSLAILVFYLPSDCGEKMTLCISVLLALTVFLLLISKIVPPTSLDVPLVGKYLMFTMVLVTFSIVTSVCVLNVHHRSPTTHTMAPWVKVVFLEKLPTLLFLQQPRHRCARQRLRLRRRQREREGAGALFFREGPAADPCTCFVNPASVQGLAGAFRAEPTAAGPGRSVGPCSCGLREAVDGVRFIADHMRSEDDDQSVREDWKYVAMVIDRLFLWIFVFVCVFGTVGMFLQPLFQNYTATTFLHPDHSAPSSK
T3 sequence (P07550 whole entry): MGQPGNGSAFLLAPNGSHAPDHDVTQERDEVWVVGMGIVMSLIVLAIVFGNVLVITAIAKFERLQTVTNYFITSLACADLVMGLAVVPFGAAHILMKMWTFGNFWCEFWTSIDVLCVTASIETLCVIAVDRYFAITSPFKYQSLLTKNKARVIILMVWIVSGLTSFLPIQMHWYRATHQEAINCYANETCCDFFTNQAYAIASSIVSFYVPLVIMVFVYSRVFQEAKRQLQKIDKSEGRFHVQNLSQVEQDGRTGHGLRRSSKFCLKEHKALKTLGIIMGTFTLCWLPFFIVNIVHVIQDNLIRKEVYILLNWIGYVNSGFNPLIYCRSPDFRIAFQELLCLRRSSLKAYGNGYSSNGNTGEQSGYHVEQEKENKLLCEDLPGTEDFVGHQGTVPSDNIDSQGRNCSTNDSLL
T6 sequence (P25021 whole entry): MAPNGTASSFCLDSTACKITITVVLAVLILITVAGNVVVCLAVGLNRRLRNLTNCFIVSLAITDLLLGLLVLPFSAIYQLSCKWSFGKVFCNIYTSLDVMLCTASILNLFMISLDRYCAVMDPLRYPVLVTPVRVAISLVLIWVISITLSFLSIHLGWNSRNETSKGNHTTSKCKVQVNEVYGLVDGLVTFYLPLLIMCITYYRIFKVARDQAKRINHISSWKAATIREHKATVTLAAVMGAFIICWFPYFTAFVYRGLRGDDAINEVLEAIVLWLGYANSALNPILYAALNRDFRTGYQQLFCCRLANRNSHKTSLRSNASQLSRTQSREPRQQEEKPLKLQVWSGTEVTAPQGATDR
T7 sequence (P21452 whole entry): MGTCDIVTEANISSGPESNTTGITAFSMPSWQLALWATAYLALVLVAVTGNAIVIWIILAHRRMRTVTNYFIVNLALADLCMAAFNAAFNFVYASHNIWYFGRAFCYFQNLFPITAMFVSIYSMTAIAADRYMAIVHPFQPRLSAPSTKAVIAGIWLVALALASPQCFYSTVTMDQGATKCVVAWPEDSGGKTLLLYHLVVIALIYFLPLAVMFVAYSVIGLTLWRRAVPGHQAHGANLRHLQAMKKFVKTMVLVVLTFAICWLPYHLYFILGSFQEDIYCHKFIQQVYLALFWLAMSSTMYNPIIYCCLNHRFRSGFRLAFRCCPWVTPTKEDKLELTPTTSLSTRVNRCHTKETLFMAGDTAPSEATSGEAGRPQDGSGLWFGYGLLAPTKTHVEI
T1 sequence (P30542 whole entry): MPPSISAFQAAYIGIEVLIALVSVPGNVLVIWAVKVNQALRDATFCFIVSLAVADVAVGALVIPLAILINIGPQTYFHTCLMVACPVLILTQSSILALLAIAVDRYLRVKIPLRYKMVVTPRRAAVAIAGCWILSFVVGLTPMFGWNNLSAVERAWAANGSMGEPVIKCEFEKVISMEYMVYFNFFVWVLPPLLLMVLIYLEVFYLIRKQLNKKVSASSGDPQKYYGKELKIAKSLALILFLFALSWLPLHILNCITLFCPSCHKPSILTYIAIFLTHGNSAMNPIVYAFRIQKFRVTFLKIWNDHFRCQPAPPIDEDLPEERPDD
T8 sequence (P23975 whole entry): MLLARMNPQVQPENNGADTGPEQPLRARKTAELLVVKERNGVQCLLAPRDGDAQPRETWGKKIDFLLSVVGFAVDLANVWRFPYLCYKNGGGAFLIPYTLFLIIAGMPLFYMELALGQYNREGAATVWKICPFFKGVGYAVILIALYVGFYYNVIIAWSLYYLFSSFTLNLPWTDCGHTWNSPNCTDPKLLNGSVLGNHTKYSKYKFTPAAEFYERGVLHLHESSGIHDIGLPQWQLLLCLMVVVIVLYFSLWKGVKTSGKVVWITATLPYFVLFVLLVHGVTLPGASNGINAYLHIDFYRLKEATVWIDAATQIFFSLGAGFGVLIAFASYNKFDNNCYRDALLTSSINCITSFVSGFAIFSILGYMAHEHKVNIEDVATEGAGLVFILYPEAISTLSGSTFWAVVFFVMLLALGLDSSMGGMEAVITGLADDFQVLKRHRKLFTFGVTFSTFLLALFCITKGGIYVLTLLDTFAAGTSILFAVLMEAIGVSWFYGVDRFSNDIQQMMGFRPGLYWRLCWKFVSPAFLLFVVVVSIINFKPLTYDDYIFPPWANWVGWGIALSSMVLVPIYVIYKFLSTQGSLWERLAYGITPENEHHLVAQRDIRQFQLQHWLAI
T5 sequence (P14416 1-414 isoform P14416-2): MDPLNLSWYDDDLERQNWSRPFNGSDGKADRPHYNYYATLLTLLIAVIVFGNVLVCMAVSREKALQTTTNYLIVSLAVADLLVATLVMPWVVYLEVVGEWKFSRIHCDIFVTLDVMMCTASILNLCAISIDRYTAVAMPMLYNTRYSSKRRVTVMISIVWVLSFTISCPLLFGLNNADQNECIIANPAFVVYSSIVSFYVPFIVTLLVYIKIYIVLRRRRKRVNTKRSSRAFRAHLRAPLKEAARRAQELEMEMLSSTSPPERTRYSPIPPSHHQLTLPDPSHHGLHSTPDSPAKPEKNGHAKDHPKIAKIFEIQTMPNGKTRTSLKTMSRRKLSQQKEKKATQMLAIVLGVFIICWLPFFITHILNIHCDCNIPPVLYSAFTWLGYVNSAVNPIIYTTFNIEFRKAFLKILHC
T4 sequence (P21554 whole entry): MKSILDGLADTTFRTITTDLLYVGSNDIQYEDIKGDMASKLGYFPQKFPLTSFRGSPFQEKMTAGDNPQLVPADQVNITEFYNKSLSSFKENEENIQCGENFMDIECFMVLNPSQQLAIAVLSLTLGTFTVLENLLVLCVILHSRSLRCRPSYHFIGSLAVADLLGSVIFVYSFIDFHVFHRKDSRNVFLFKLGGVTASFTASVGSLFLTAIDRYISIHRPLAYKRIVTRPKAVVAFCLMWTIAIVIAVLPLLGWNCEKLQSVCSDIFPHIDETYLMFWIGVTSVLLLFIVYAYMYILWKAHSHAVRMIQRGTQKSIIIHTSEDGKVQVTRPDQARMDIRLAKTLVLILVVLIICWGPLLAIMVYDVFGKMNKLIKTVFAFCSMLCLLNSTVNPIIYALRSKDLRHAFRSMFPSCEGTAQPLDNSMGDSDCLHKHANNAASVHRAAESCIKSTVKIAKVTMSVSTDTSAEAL
D4.4(h), sequence (P21917 whole entry): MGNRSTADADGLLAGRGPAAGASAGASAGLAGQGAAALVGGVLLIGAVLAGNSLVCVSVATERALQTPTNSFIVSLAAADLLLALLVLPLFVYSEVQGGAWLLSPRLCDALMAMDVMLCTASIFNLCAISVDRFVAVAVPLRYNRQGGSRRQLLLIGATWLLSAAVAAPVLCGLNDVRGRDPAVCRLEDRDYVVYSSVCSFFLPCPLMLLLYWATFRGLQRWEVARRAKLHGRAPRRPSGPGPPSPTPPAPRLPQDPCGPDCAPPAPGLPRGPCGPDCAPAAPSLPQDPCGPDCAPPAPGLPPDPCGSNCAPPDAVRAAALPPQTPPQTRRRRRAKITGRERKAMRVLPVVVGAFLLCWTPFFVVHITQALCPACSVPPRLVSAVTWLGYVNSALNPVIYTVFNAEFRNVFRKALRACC
T2 sequence (P08588 whole entry): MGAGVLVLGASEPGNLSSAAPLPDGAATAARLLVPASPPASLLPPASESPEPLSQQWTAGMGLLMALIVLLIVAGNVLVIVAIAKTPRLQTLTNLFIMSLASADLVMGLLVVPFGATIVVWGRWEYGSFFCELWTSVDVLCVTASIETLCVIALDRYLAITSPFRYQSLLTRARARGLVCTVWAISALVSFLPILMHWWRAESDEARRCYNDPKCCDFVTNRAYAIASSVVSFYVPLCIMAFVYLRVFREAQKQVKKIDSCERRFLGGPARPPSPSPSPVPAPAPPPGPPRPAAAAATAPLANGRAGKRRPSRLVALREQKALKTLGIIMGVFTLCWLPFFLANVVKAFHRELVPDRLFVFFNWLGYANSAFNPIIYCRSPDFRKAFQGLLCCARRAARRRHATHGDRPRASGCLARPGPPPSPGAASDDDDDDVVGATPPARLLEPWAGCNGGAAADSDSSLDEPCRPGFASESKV

## O=C(O)c1cc(/N=N/c2ccc(S(=O)(=O)Nc3ccccn3)cc2)ccc1O [sulfasalazine, reference compound]
[1]; 50 mg/kg/day p.o. in divided doses b.i.d.
  attenuation of TNBS-induced fall in body weight (% change in body weight at Day 0): did not reach statistical significance
[1]; [20]
  reduction in area of macroscopic colonic injury: significantly (P<0.001) reduced the extent of macroscopic injury
  reduction in colon weight: significant reduction in colon weight was also not observed
  reduction in colonic MPO levels: significantly reduced the elevated colonic levels of MPO
  reduction in colonic water content (wet/dry weight): significant reduction in colon weight was also not observed

## N#Cc1ccc2c(ccn2CCCCCB(O)O)c1 [Example 20, 5-(5-cyano-1H-indol-1-yl)pentylboronic acid]
[2]
  inhibition at 10 µM: 7%
[3]
  inhibition at 10 µM: 7%
[4]
  inhibition at 10 µM: 5%
[5]
  % Inhibition of Control Specific Binding: 18%
[6]
  inhibition at 10 µM: -2%
[7]
  inhibition at 10 µM: 23%
[8]
  inhibition at 10 µM: 1%
[9]
  % Inhibition of Control Specific Binding: −3%
[10]
  % Inhibition of Control Specific Binding: −6%
[11]
  % Inhibition of Control Specific Binding: 19%
[12]
  inhibition at 10 µM: 15%
[13]
  inhibition at 10 µM: -2%
[14]
  inhibition at 10 µM: 12%
[15]
  % Inhibition of Control Specific Binding: 14%
[16]
  % Inhibition of Control Specific Binding: −12%
[17]
  % Inhibition of Control Specific Binding: −15%
[18]
  inhibition at 10 µM: 15%
[19]
  % Inhibition of Control Values: −5%
